Data as given in article PMC5650142, “GPR40 partial agonists and AgoPAMs: Differentiating effects on glucose and hormonal secretions in the rodent” (PLoS ONE, 2017).
Several values for one entry are separate records, joined by “and”; a condition that tells them apart may be missing. Identical values can stand only once. Like-named read-outs stand apart in the source and are kept apart here.

Columns and labels:
human GPR40 [1] = biological target: T1, human GPR40 (Homo sapiens, UniProt O14842); test: Human GPR40 IP1 accumulation assay; format: cell-based; design: expressed in transfected cells
T1 sequence (O14842 whole entry): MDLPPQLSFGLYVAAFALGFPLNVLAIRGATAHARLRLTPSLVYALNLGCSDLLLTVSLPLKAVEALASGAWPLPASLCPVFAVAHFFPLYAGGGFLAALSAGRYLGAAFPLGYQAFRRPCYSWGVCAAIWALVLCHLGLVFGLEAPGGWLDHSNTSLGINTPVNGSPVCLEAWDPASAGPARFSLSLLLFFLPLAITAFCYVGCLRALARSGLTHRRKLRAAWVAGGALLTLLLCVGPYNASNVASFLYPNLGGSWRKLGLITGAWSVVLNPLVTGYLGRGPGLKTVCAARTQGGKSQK
Experimental: (§1) Stable cell lines expressing human GPR40 (hGPR40/HEK293), mouse GPR40 (mGPR40/CHO-K1), and rat GPR40 (rGPR40/CHO-K1) were cultured in DMEM media supplemented with 10% FBS, glutamine, non-essential amino acids, and penicillin/streptomycin. hGPR40/HEK293 & mGPR40/CHO-K1 cell media was supplemented with […] G418 (Life Technologies), while rGPR40/CHO-K1 cells were grown in […] blasticidin plus […] hygromycin (Life Technologies). Cell stocks were maintained and grown in a sub-confluent state using standard cell culture procedures. The day before the experiment, the cells were harvested with non-enzymatic cell dissociation buffer and re-suspended in DMEM supplemented with 10% FBS, glutamine, non-essential amino acids, penicillin/streptomycin at 0.15, 0.2 and 0.3 million cells per ml for human, mouse, and rat GPR40, respectively. […] The seeded plates were incubated overnight at 37 C.
(§2) On the day of the experiment, the growth media was removed from the assay by gently patting the assay plates on an absorbent sheet and 10 μl of IP1 stimulation buffer (Cis Bio IP-one Tb HTRF kit) supplemented with 50 mM LiCl is added to each well. Test compounds dissolved in DMSO were serially diluted in ½ log increments starting from 2 mM or 0.2 mM and 50 nl of the compound dilution was acoustically added to each well (final starting concentration 10 μM or 1 μM). Plates were then incubated for 60 minutes at room temperature and 10 μl of detection buffer (prepared as described in the Tb kit) is added to each well. The plates are then incubated one additional hour at room temperature. […] For each assay, a standard curve plate in which IP1 is titrated is also included. […] The percent activity at each concentration of test compound is determined using 0% activation (basal activity) determined in those wells that contain DMSO alone, while 100% activity is determined in wells that contained a concentration of a partial allosteric agonist know to activate GPR40. The % activity is then plotted versus the concentration of test compound and the dose response curve fitted to a standard 4-parameter non-linear regression model using a custom in-house developed software package (Merck & Co., Inc., MRL, Kenilworth, NJ, USA). Maximal % activity and EC50 are then determined for each test compound.

mouse GPR40 = biological target: T2, mouse GPR40 (Mus musculus, UniProt Q76JU9); test: Mouse GPR40 IP1 accumulation assay; format: cell-based
T2 construct: expressed in transfected cells; host or cells: CHO-K1 (methods)
T2 sequence (Q76JU9 whole entry): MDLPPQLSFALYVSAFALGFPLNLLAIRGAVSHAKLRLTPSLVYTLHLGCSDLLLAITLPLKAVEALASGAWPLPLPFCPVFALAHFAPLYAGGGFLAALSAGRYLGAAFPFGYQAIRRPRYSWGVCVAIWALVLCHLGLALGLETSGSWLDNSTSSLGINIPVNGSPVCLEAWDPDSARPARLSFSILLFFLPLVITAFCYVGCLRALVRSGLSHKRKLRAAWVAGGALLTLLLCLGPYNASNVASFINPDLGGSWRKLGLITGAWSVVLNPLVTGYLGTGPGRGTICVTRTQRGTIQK
Experimental: as §1, §2

human GPR40 [2] = biological target: T1, human GPR40; test: GPR40 binding assay, partial agonist tracer [3H]L358; design: expressed in transfected cells; host or cells: CHO / CHO-K1 cells, membrane preparation; details: radioligand L-001533358;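 on %Bound: 100% is tracer binding with DMSO alone and 0% is full displacement by a standard compound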
Experimental: Two small molecule tracers, the partial agonist [3H][…] and the AgoPAM [3H]25, are used to measure compound affinity at each site as described previously. Because of the allosteric coupling of the two sites and the nature of the assay, addition of a compound will either displace (binds to same site) or augment (binds to allosterically coupled site) radiotracer. Membranes expressing GPR40 were prepared from CHO cells stably expressing human GPR40. […] Sigma P8830) and were homogenized in 50 ml aliquots with a motor-driven glass Dounce homogenizer, 15 strokes at 1900 rpm on wet ice, repeating once. Homogenates were centrifuged at 2200 rpm for 10 min at 4°C. Supernatants were carefully removed and pooled. Homogenization and centrifugation were repeated until the debris pellet was translucent to maximize membrane recovery. Supernatants were then centrifuged at […] rpm for 20 min. at 4°C. […] Protein concentration was determined by Pierce BCA kit. […] The beads and membrane mixture is then vigorously mixed for 30 minutes at room temperature prior to addition to the assay. […] Next, 15 μl of the radioligand and 35 μl of the beads/membranes solution is added to each well. The assay plates are then sealed and incubated for 30 minutes at room temperature on an orbital shaker. The plates are allowed to settle for 16 hours and then counted on a TopCount scintillation counter (PE). […] Maximal % bound and IC50 are then determined for each test compound. 5 μg/well membrane together with 200 μg/well of PVT WGA SPA beads (GE #RPNG-0001) were suspended in a white 96 well plate with a final concentration of 50 μl/well in assay buffer (50 mM Tris, 10 mM MgCl2, and 2 mM EDTA). […] The plate is briefly mixed and incubated for 3-18 h at room temperature, before it is read on a MicroBeta plate counter (Perkin Elmer, MS, USA).

rat GPR40 = biological target: T3, rat GPR40 (Rattus norvegicus, UniProt Q8K3T4); test: Rat GPR40 IP1 accumulation assay; format: cell-based
T3 construct: expressed in transfected cells; host or cells: CHO-K1 (methods)
T3 sequence (Q8K3T4 whole entry): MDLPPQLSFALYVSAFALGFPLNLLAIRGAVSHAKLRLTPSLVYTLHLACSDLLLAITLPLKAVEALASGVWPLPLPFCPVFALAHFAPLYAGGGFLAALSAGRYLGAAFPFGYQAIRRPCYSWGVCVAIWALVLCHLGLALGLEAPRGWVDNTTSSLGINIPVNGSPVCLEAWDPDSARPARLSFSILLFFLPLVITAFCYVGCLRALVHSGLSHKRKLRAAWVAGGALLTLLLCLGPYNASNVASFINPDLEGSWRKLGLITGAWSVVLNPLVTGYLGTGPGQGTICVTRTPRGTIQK
Experimental: as §1, §2

[3] = maximal % activity vs in-house partial agonist control

Human GPR40 Receptor Activation (%) (human GPR40 [1]; dose 1.50E-11 M): 35% | Human GPR40 Receptor Activation (%) (human GPR40 [1]; dose 1.55E-08 M): 357% | Human GPR40 Receptor Activation (%) (human GPR40 [1]; dose 2.43E-10 M): 231% | Human GPR40 Receptor Activation (%) (human GPR40 [1]; dose 2.49E-07 M): 381% | Human GPR40 Receptor Activation (%) (human GPR40 [1]; dose 3.89E-09 M): 357% | Human GPR40 Receptor Activation (%) (human GPR40 [1]; dose 4.00E-12 M): 5% | Human GPR40 Receptor Activation (%) (human GPR40 [1]; dose 6.10E-11 M): 154% | Human GPR40 Receptor Activation (%) (human GPR40 [1]; dose 6.22E-08 M): 356% | Human GPR40 Receptor Activation (%) (human GPR40 [1]; dose 9.72E-10 M): 323% | Human GPR40 Receptor Activation (%) (human GPR40 [1]; dose 9.95E-07 M): 404% | EC50 (human GPR40 [1]; individual determinations, read-out: EC50 (nM), HUMAN GPR40, Functional Assay): 0.13 nM and 0.14 nM and 0.18 nM and 0.19 nM and 0.22 nM and 0.08 nM and 0.09 nM and 0.12 nM | Efficacy (% Activation), Human (human GPR40 [1]; [3]): (359%) | EC50 (human GPR40 [1]; mean ± SD, n = 2–20, IP accumulation, read-out: Potency [EC50, nM] ± SD, Human): 0.15 ± 0.05 nM | Mouse GPR40 Receptor Activation (%) (mouse GPR40; dose 1.50E-11 M): 13% | Mouse GPR40 Receptor Activation (%) (mouse GPR40; dose 1.55E-08 M): 531% | Mouse GPR40 Receptor Activation (%) (mouse GPR40; dose 2.43E-10 M): 207% | Mouse GPR40 Receptor Activation (%) (mouse GPR40; dose 2.49E-07 M): 540% | Mouse GPR40 Receptor Activation (%) (mouse GPR40; dose 3.89E-09 M): 508% | Mouse GPR40 Receptor Activation (%) (mouse GPR40; dose 4.00E-12 M): -3.79% | Mouse GPR40 Receptor Activation (%) (mouse GPR40; dose 6.10E-11 M): 72% | Mouse GPR40 Receptor Activation (%) (mouse GPR40; dose 6.22E-08 M): 489% | Mouse GPR40 Receptor Activation (%) (mouse GPR40; dose 9.72E-10 M): 327% | EC50 (mouse GPR40; individual determinations, read-out: EC50 (nM), Mouse GPR40, Functional Assay): 0.44 nM and 0.48 nM and 0.55 nM and 0.56 nM and 0.66 nM and 0.74 nM and 0.33 nM and 0.41 nM and 0.43 nM | Efficacy (% Activation), Mouse (mouse GPR40; [3]): (532%) | EC50 (mouse GPR40; mean ± SD, n = 2–20, IP accumulation, read-out: Potency [EC50, nM] ± SD, Mouse): 0.51 ± 0.12 nM | % Bound Normalized to 100 (human GPR40 [2]; dose 0.318285 nM): 100.72% | %Bound (human GPR40 [2]; dose 0.318285 nM): 106.70% | % Bound Normalized to 100 (human GPR40 [2]; dose 1.00578 nM): 118.24% | %Bound (human GPR40 [2]; dose 1.00578 nM): 124.21% | % Bound Normalized to 100 (human GPR40 [2]; dose 3.17827 nM): 131.70% | %Bound (human GPR40 [2]; dose 3.17827 nM): 137.67% | % Bound Normalized to 100 (human GPR40 [2]; dose 10.0433 nM): 152.63% | %Bound (human GPR40 [2]; dose 10.0433 nM): 158.61% | % Bound Normalized to 100 (human GPR40 [2]; dose 31.7369 nM): 164.17% | %Bound (human GPR40 [2]; dose 31.7369 nM): 170.14% | % Bound Normalized to 100 (human GPR40 [2]; dose 100.289 nM): 171.43% | %Bound (human GPR40 [2]; dose 100.289 nM): 177.41% | % Bound Normalized to 100 (human GPR40 [2]; dose 316.912 nM): 183.61% | %Bound (human GPR40 [2]; dose 316.912 nM): 189.59% | % Bound Normalized to 100 (human GPR40 [2]; dose 1001.44 nM): 174.85% | %Bound (human GPR40 [2]; dose 1001.44 nM): 180.83% | % Bound Normalized to 100 (human GPR40 [2]; dose 3164.56 nM): 169.51% | %Bound (human GPR40 [2]; dose 3164.56 nM): 175.49% | % Bound Normalized to 100 (human GPR40 [2]; dose 10000 nM): 192.80% | %Bound (human GPR40 [2]; dose 10000 nM): 198.77% | Rat GPR40 Receptor Activation (%) (rat GPR40; dose 1.50E-11 M): 7% | Rat GPR40 Receptor Activation (%) (rat GPR40; dose 1.55E-08 M): 588% | Rat GPR40 Receptor Activation (%) (rat GPR40; dose 2.43E-10 M): 161% | Rat GPR40 Receptor Activation (%) (rat GPR40; dose 2.49E-07 M): 616% | Rat GPR40 Receptor Activation (%) (rat GPR40; dose 3.89E-09 M): 549% | Rat GPR40 Receptor Activation (%) (rat GPR40; dose 4.00E-12 M): 0.25% | Rat GPR40 Receptor Activation (%) (rat GPR40; dose 6.10E-11 M): 52% | Rat GPR40 Receptor Activation (%) (rat GPR40; dose 6.22E-08 M): 567% | Rat GPR40 Receptor Activation (%) (rat GPR40; dose 9.72E-10 M): 357% | Rat GPR40 Receptor Activation (%) (rat GPR40; dose 9.95E-07 M): 567% | EC50 (rat GPR40; individual determinations, read-out: EC50 (nM), Rat GPR40, Functional Assay): 0.45 nM and 0.46 nM and 0.58 nM and 0.61 nM and 0.72 nM and 0.95 nM and 1.15 nM and 0.31 nM and 0.33 nM and 0.36 nM | Efficacy (% Activation), Rat (rat GPR40; [3]): (531%) | EC50 (rat GPR40; mean ± SD, n = 2–20, IP accumulation, read-out: Potency [EC50, nM] ± SD, Rat): 0.59 ± 0.28 nM
Compound: COc1ccc(F)c(-c2ccc([C@@H]3CCc4ccc([C@H](C5CC5)[C@H](C)C(=O)O)cc4O3)cc2)c1 [AP1]
%Act, HUMAN GPR40, Functional Assay (human GPR40 [1]; individual determinations): 254% and 368% and 338% and 409% and 464% and 275% and 405% and 364% and 355% | %Act, Mouse GPR40, Functional Assay (mouse GPR40; individual determinations): 325% and 647% and 612% and 390% and 593% and 587% and 801% and 441% and 392% and 533% | %Act, Rat GPR40, Functional Assay (rat GPR40; individual determinations): 391% and 456% and 671% and 592% and 636% and 716% and 674% and 356% and 385% and 437%
